From US20250101436A1, “APTAMERS AND SMALL MOLECULE LIGANDS” (MeiraGTx UK II Limited, priority 2021, published 2025)

These substances were tested on luciferase gene expression in HEK 293 cells in response to Comp. 004 (assay: Screen of riboswitch constructs with 12C6-1 variant aptamers (libraries N1-N5) against Comp. 004, luciferase in HEK 293 cells). Conditions: library N1 (J2-4), HEK 293, 25 M [sic] Comp. 004.
Format: cell-based, human
How it was run: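 Riboswitch constructs carrying 12C6-1 aptamer variants, randomized in J2-4, J2-3/J3-3a/J3a-2/P3, L3a, J4-5/J5-4/P4 or L5 regions (libraries N1-N5), cloned into an intron-exon-intron cassette driving luciferase. Screened in HEK 293 cells with 25 µM Comp. 004; read-out is fold induction of gene expression versus parent Luci-12C6-1.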

In order of falling “Fold (induction of luciferase gene expression)” value (shortened to “Fold”):
1. N1_2F11 (CTGGGGAGTCCTTCATGCGGGGC; chemistry not given here)  150.18 fold
2. N1_2D6 (CTGGGGAGTCCTTCATGCGGGGC; chemistry not given here)  13.57 fold
3. N1_2G4 (CTGGGGAGTCCTTCATGCGGGGC; chemistry not given here)  9.06 fold
4. N1_2F4 (CTGGGGAGTCCTTCATGCGGGGC; chemistry not given here)  4.74 fold
5. N1_2G10 (CTGGGGAGTCCTTCATGCGGGGC; chemistry not given here)  4.40 fold

Same assay, conditions: library N2 variant aptamers (J2-3, P3-J3-3a, J3a-2 randomized) of 12C6-1 in riboswitch constructs; in response to Comp. 004; HEK 293 cells

In order of falling “Fold” value:
1. N2_2E10 (DNA CTGGGGAGTCCTTCATGC; chemistry not given here)  1.2 fold
2. N2_2H11 (CTGGGGAGTCCTTCATGC; chemistry not given here)  1.2 fold
3. N2_2A10 (CTGGGGAGTCCTTCATGC; chemistry not given here)  1.1 fold
4. N2_2G6 (DNA CTGGGGAGTCCTTCATGC; chemistry not given here)  1.1 fold
5. N2_2F11 (DNA CTGGGGAGTCCTTCATGC; chemistry not given here)  1.1 fold
6. N2_2A9 (CTGGGGAGTCCTTCATGC; chemistry not given here)  1.1 fold
7. N2_2D6 (DNA CTGGGGAGTCCTTCATGC; chemistry not given here)  1.1 fold
8. N2_2G10 (DNA CTGGGGAGTCCTTCATGC; chemistry not given here)  1.0 fold
9. N2_2H10 (CTGGGGAGTCCTTCATGC; chemistry not given here)  1.0 fold
10. N2_2G7 (DNA CTGGGGAGTCCTTCATGC; chemistry not given here)  1.0 fold
11. N2_2A8 (CTGGGGAGTCCTTCATGC; chemistry not given here)  1.0 fold
12. N2_2F12 (DNA CTGGGGAGTCCTTCATGC; chemistry not given here)  1.0 fold
13. N2_2D9 (DNA CTGGGGAGTCCTTCATGC; chemistry not given here)  1.0 fold
14. N2_2E8 (DNA CTGGGGAGTCCTTCATGC; chemistry not given here)  0.9 fold
15. N2_2E6 (DNA CTGGGGAGTCCTTCATGC; chemistry not given here)  0.9 fold
16. N2_2A3 (CTGGGGAGTCCTTCATGC; chemistry not given here)  0.8 fold
17. N2_2H2 (CTGGGGAGTCCTTCATGC; chemistry not given here)  0.8 fold

Same assay, conditions: library N5 variant aptamers (L5, X16-X21 randomized) of 12C6-1 in riboswitch constructs; in response to Comp. 004 treatment; HEK 293 cells

In order of rising “Fold” value:
1. N5_1D12 (CTGGGGAGTCCT; chemistry not given here)  3.6 fold
2. N5_7H1 (DNA CTGGGGAGTCCT; chemistry not given here)  158.5 fold
3. N5_1A5 (CTGGGGAGTCCT; chemistry not given here)  291.5 fold
4. N5_1H4 (CTGGGGAGTCCT; chemistry not given here)  482.5 fold
5. N5_1G2 (CTGGGGAGTCCT; chemistry not given here)  517.7 fold
6. N5_1D4 (CTGGGGAGTCCT; chemistry not given here)  522.9 fold
7. N5_7G10 (DNA CTGGGGAGTCCT; chemistry not given here)  530.8 fold
8. N5_1H6 (CTGGGGAGTCCT; chemistry not given here)  654.9 fold
9. N5_1B7 (CTGGGGAGTCCT; chemistry not given here)  662.1 fold
10. N5_1A2 (CTGGGGAGTCCT; chemistry not given here)  672.2 fold
11. N5_1D6 (CTGGGGAGTCCT; chemistry not given here)  684.9 fold
12. N5_1E8 (CTGGGGAGTCCT; chemistry not given here)  691.8 fold
13. N5_7B8 (CTGGGGAGTCCT; chemistry not given here)  693.7 fold
14. N5_1H9 (CTGGGGAGTCCT; chemistry not given here)  714.2 fold
15. N5_9G5 (DNA CTGGGGAGTCCT; chemistry not given here)  725.3 fold
16. N5_1E2 (CTGGGGAGTCCT; chemistry not given here)  728.6 fold
17. N5_1D5 (CTGGGGAGTCCT; chemistry not given here)  841.7 fold
18. N5_7B6 (CTGGGGAGTCCT; chemistry not given here)  875.4 fold
19. N5_7E8 (DNA CTGGGGAGTCCT; chemistry not given here)  879.9 fold
20. N5_3F9 (CTGGGGAGTCCT; chemistry not given here)  909.7 fold
21. N5_7G7 (DNA CTGGGGAGTCCT; chemistry not given here)  952.9 fold
22. N5_3A3 (CTGGGGAGTCCT; chemistry not given here)  1066.3 fold
23. N5_8G9 (DNA CTGGGGAGTCCT; chemistry not given here)  1066.5 fold
24. N5_12G2 (CTGGGGAGTCCT; chemistry not given here)  1074.1 fold
25. N5_7C10 (CTGGGGAGTCCT; chemistry not given here)  1090.7 fold
26. N5_14B10 (CTGGGGAGTCCT; chemistry not given here)  1133.0 fold
27. N5_13G5 (CTGGGGAGTCCT; chemistry not given here)  1198.5 fold
28. N5_8H7 (DNA CTGGGGAGTCCT; chemistry not given here)  1218.5 fold
29. N5_7A7 (CTGGGGAGTCCT; chemistry not given here)  1226.2 fold
30. N5_11F4 (CTGGGGAGTCCT; chemistry not given here)  1230.1 fold
31. N5_13H3 (CTGGGGAGTCCT; chemistry not given here)  1288.5 fold
32. N5_1G6 (CTGGGGAGTCCT; chemistry not given here)  1311.6 fold
33. N5_7C4 (DNA CTGGGGAGTCCT; chemistry not given here)  1363.2 fold
34. N5_14G11 (CTGGGGAGTCCT; chemistry not given here)  1775.3 fold
35. N5_12F4 (CTGGGGAGTCCT; chemistry not given here)  2096.2 fold
36. N5_13E8 (CTGGGGAGTCCT; chemistry not given here)  2096.6 fold
